Source: PMC10647589, “Heterogeneous Cellular Response of Primary and Metastatic Human Gastric Adenocarcinoma Cell Lines to Magnoflorine and Its Additive Interaction with Docetaxel” (International Journal of Molecular Sciences, 2023)

Legend:
Assay in all cases: MTT assay (viability; isobolographic analysis)
Assay type in all cases: cell-based
MKN-74 human GC cells = settings: MKN-74, 72 h incubation, mean ± SEM
Experimental: (§1) The human GC cells ACC-201, AGS, MKN-74 and NCI-N87 were placed in 96-well plates and allowed to adhere overnight. On the following day, the growth medium was removed, and the cells were treated with a series of tested MGN and DCT dilutions (2.0–75 and 0.0004–0.0404 µg/mL, respectively) for 72 h at 37 °C. […] Subsequently, a solution of MTT (5 mg/mL) was added to each well, and the cells were further incubated for 3 h at 37 °C. Tetrazolium salt was reduced to violet formazan derivatives via the succinate dehydrogenase of metabolically active cells. Insoluble formazan compounds formed inside the cells were extracted with a sodium dodecyl sulfate buffer (10% SDS in 0.01 N HCl) overnight to achieve a quantitative assessment of the amount produced. The absorbance of the samples was measured at 570 nm using Infinite M200 Pro microplate reader (Tecan, Männedorf, Switzerland). Cell viability was presented as a percentage relative to the untreated control cells.
(§2) Interactions between MGN and DCT analyzed after 72 h in four different GC cell lines (ACC-201, AGS, MKN-74 and NCI-N87) were characterized by means of an isobolographic analysis in the MTT assay. The percentage inhibition of cell viability accompanied by the specific concentrations of the tested substances (MGN and DCT) were transferred to the MS Excel spreadsheet, and the data were computed using the log–probit method. Next, the concentration–response effect graphs for the tested drugs (MGN and DCT) were drawn, and the IC50 values for every tested drug were calculated. The cooperative effect of two concentration–response lines was tested for the MGN and DCT combination, as previously described. The calculations of IC50 values (±SEM) were computed with formulas originally derived from the log–probit method and adapted to the in vitro conditions, as described earlier. The concentration–response lines for MGN and DCT were not parallel, and thus, the isobolographic additivity was illustrated graphically as an area bounded by two (upper and lower) lines of additivity. From the experimentally denoted IC50 values for MGN and DCT in the MTT assay, median additive inhibitory concentrations (IC50add) for the mixture (at the fixed ratio of 1:1 of MGN and DCT) in various cell lines (ACC-201, AGS, MKN-74 and NCI-N87) were calculated, as described previously. More information on isobolographic analysis can be found in the literature.

NCI-N87 human GC cells = settings: NCI-N87, 72 h incubation, mean ± SEM
Experimental: as §1, §2

ACC-201 human GC cells = settings: ACC-201, 72 h incubation, mean ± SEM
Experimental: as §1, §2

AGS human GC cells = settings: 72 h incubation, mean ± SEM
Experimental: as §1, §2

IC50 (MKN-74 human GC cells): 4.9 ± 2.1 ng/mL
IC50 (AGS human GC cells): 2.6 ± 1.2 ng/mL
Compound: CC(=O)O[C@@]12CO[C@@H]1C[C@H](O)[C@@]1(C)C(=O)[C@H](O)C3=C(C)[C@@H](OC(=O)[C@H](O)[C@@H](NC(=O)OC(C)(C)C)c4ccccc4)C[C@@](O)([C@@H](OC(=O)c4ccccc4)[C@H]21)C3(C)C [DCT, docetaxel]
IC50 (NCI-N87 human GC cells): 9 ± 2.9 ng/mL
IC50 (ACC-201 human GC cells): 2.8 ± 0.9 ng/mL
